Source: ChEMBL document CHEMBL3098026, “Synthesis and SAR of novel isoxazoles as potent c-jun N-terminal kinase (JNK) inhibitors” (Bioorg Med Chem Lett, 2014)

How the values were obtained:
Rattus norvegicus = assay: Oral bioavailability in Sprague-Dawley rat at 2 mg/kg; format: ADME, organism-based; conditions: in vivo
[1] = Cmax in Sprague-Dawley rat at 2 mg/kg, po; format: ADME, organism-based; design: dose 2 mg/kg, route oral; conditions: in vivo
[2] = AUC in Sprague-Dawley rat at 2 mg/kg, po; format: ADME, organism-based; design: dose 2 mg/kg, route oral; conditions: plasma
[3] = Volume of distribution in Sprague-Dawley rat at 1 mg/kg, iv and 2 mg/kg, po; format: ADME, organism-based; conditions: in vivo
[4] = Half life in Sprague-Dawley rat at 1 mg/kg, iv and 2 mg/kg, po; format: ADME, organism-based; conditions: in vivo
[5] = Plasma clearance in Sprague-Dawley rat at 1 mg/kg, iv and 2 mg/kg, po; format: ADME, organism-based
[6] = Stability in human microsomes; format: ADME, Microsome

SMILES | F (Rattus norvegicus) [%] | Cmax [1] [nM] | AUC [2] [µM·h] | Vd [3] [L/kg] | half-life [4] [h] | clearance [5] [mL/min/kg] | Stability [6]
Cc1ncn(-c2ccc(Nc3cc(-c4nocc4-c4cnn(C)c4)ccn3)cc2)n1 | 37 | 1500 | 5 | 0.4 | 1.5 | 6 | 
Cc1ncn(-c2ccc(Nc3cc(-c4nocc4-c4cn[nH]c4C)ccn3)cc2)n1 | 12 | 300 | 0.7 | 0.4 | 1.8 | 13 | 
Oc1onc(-c2ccnc(Nc3ccc(N4CCOCC4)cc3)c2)c1-c1ccc(F)cc1 |  |  |  |  |  |  | Unstable
